Reference: PMC5742583, “A Functional Analysis on the Interspecies Interaction between Mouse LFA-1 and Human Intercellular Adhesion Molecule-1 at the Cell Level” (Frontiers in Immunology, 2017)
Where no end group is shown, it is not given here.

Tests used:
[1] = tested on: mouse B cells (ICAM-1/LFA-1 interaction); test: Homotypic B cell aggregation assay; assay type: cell-based; conditions: splenocytes activated with PHA and ionomycin, overnight 37°C
Description: To obtain these cells, mice were sacrificed by cervical dislocation, the spleens were removed, and splenocytes were isolated and resuspended in RPMI 10% FBS at a final concentration of 10^6 cells/ml. Cells were treated with 10 µg/ml PHA and 1 µg/ml ionomycin to activate LFA-1 and incubated at 37°C 5% CO2 overnight in flat bottom 96-well plates (10^5 cells) in the presence of peptides from LFA-1 and c-Myc (control) 250 µM, D1D2, D1D2Fc, and human IgG1 10 µg, EGTA 1 mM and lovastatin 100 µM. A qualitative aggregation assay was carried out as described ([36], [41]) with a slight modification. Briefly, positive control stimulated cell samples were arbitrarily assigned a clumping index of 10 and lovastatin samples an index of 1. Test samples were ranked from 1 to 10 based upon degree of clumping relative to stimulated and lovastatin-treated samples. Results were verified by a blind independent rating performed by a second observer.
Fresh mouse B cells were obtained from splenocytes and stimulated with PHA and ionomycin to induce homotypic adhesion. The results were quantified by establishing a clumping index that represents the degree of cell aggregation, which reflects the inhibition efficiency (Figure 3B). Cell aggregation was ranked by a clumping index from 1 to 10 based on the degree of aggregation in comparison with the stimulated cells (positive control, clumping index = 10).
Figure 3 Effect of human (ICAM-1) on the aggregation of mouse spleen cells. (A) Splenocytes isolated from mice were non treated (a) or activated with PHA (b–i) as described in Section “Experimental Procedures” and further incubated overnight with (b) medium; (c) IgG1; (d) c-Myc peptide; (e) EGTA; (f) lovastatin; (g) D1D2; (h) D1D2Fc; (i) mouse LFA-1 peptide CD11a235–259. Images were taken with an optical microscope (original magnification, 10×). Representative images from two independent experiments with similar results are shown. (B) The graph represents the rate of agglutination depending on the inhibitory effect on ICAM-1/LFA-1 interaction. Cells stimulated with PHA and ionomycin, which served as a positive control, were arbitrarily assigned agglutination index 10, which represents a percentage of aggregation between 90 and 100%. Homotypic aggregation was classified from 1 to 10 depending on the degree of aggregation relative to cells stimulated. The result was verified by a second independent observer. Values are presented as mean ± SEM of two separate experiments performed by duplicate. Statistical analysis was performed using two-way analysis of variance with Bonferroni’s posttest comparing with c-Myc peptide control. *p < 0.05; ***p < 0.001.

Mac-1 = conditions: cited from earlier work
From the text: (§1) In contrast, cell aggregates were clearly visible in cultures after stimulation (Figure 3A, b). […] Macrophage phenotype was confirmed by testing surface antigens by flow cytometry. Monocyte-derived macrophages expressed higher levels of HLA-DR and CD14 than undifferentiated monocytes ([51]). In addition, expression of CD54 (ICAM-1) was diminished in comparison with freshly isolated monocytes (Figure 6B). […] As shown ...

VLA-4 = conditions: cited from earlier work
From the text: as §1

[2] = tested on: gp33-pulsed EL4 cells killed by mouse Tc cells (ICAM-1/LFA-1); test: CD8+ T cell-mediated cytotoxicity on EL4; assay type: cell-based; conditions: preincubation 45 min 37°C, effector:target 10:1, 4 h
mouse macrophages = test: Mouse macrophage adhesion to uncoated plastic (MTT); assay type: cell-based; conditions: lovastatin 100 µM, 37°C overnight
Description: Mouse macrophages were differentiated from mouse bone marrow as previously described ([37]). Briefly, bone marrow cells isolated from mouse femur were cultured in DMEM 10% FBS, 5% horse serum, and 30% supernatant of L929 cell culture as a source of M-CSF at a density of 10^6/cm^2 for 7–8 days. Macrophage differentiation was analyzed in the same way as human macrophages but using CD11b-APC and CD11c-PE (BD) antibodies.
Freshly isolated monocytes or differentiated macrophages were washed twice with PBS and incubated with trypsin (PAN Biotech) for 30 min at 37°C 5% CO2. After that, cells were scraped gently from the plate and resuspended at a final concentration of 10^6 cells/ml in complete RPMI medium. Subsequently, 10^5 macrophages and 5 × 10^5 monocytes were added to each well and incubated with several concentrations of human D1D2, D1D2Fc, D1D5Fc, mouse D1D5Fc, control human IgG1 20 µg or lovastatin 100 µM at 37°C 5% CO2 overnight. Next day, every well was washed twice with PBS, complete RPMI medium was added and the number or adherent remaining cells was quantified by a MTT colorimetric test ([38]). In some experiments, plates previously coated with human and mouse D1D5Fc were used. […]
Figure 7 Human intercellular adhesion molecule (ICAM)-1 blocks LFA-1-mediated mouse macrophage cell adhesion. […] (B) Macrophage phenotype was analyzed by flow cytometry testing the expression CD11b and CD11c. […]

ICAM-1/LFA-1 interaction = conditions: cited from earlier work
Description: Human and mouse LFA-1-derived peptides (human: CD11a237–261; mouse: CD11a235–259) were purchased from GenScript (Piscataway, USA) without any modification. […] Besides, incubation cells with a mouse antiCD1 ...

human monocytes = test: Human monocyte adhesion to plastic (MTT); assay type: cell-based; conditions: lovastatin 100 µM, 37°C overnight
Description: (§2) Monocytes were isolated from human peripheral blood mononuclear cells (PBMCs), obtained from healthy donors (Blood and Tissue Bank of Aragon; approved by the CEICA, number: C.I.PI11/006) by density gradient centrifugation using Ficoll-Paque (GE healthcare). PBMCs were resuspended at a concentration of 2.5 × 10^6 cells/ml in RPMI medium supplemented with 1% heat-inactivated human AB serum (Sigma). Cells were cultured in a Petri dish for 2 h at 37°C 5% CO2. […]
(§3) Freshly isolated monocytes or differentiated macrophages were washed twice with PBS and incubated with trypsin (PAN Biotech) for 30 min at 37°C 5% CO2. […] Next day, every well was washed twice with PBS, complete RPMI medium was added and the number or adherent remaining cells was quantified by a MTT colorimetric test ([38]). […]
(§4) Figure 6 LFA-1 is involved in human macrophage adhesion. […] (B) Macrophage phenotype was analyzed by flow cytometry testing the expression of HL-DR, CD14, CD54, and CD11a. […] Subsequently, every well was washed twice with PBS to remove non-adherent cells and quantification of cell adhesion was carried out by MTT as described in Section “Experimental Procedures.” Values are presented as mean ± SEM of three independent experiments performed by duplicate. […]

human macrophages = test: Human macrophage adhesion to plastic (MTT); assay type: cell-based; conditions: lovastatin 100 µM, 37°C overnight
Description: as §2, §3, §4

[3] = tested on: K562 cells killed by human NK cells (ICAM-1/LFA-1); test: NK cell-mediated cytotoxicity on K562; assay type: cell-based; conditions: peptide 250 µM, preincubation 45 min 37°C; effector:target 3:1, 4 h; annexin-V/7-AAD by FACS; vs c-Myc control; two experiments by duplicate
Description: The effect of human and mouse peptides derived from LFA-1 on ICAM-1/LFA-1 dependent cell–cell contact was analyzed by performing a cell cytotoxicity assay using human primary NK cells and the NK cell sensitive human leukemia K562. Primary activated human NK cells were generated by culturing PBMCs with mitomycin C inactivated R69 cells for 5 days and enriched by MACS using anti-CD56 antibodies as previously described ([39]). Cell cytotoxicity induced by NK cells on K562 was analyzed by flow cytometry as previously described ([39]). Briefly, K562 cells were preincubated with medium alone, in the presence of 250 µM of human and mouse peptides from LFA-1 or D1D2 (15 µg) for 45 min at 37°C. Then, NK cells were added at 3:1 effector:target cell ratio and incubated for 4 h at 37°C, 5% CO2. Subsequently, phosphatidylserine exposure and 7-AAD uptake were analyzed by FACS using the annexin-V/7-AAD kit from Immunostep. As a control, the cells were incubated alone with the inhibitors to evaluate their possible toxicity, which was not significant in any case.
Figure 4 Inhibition of natural killer (NK) cell-mediated cytotoxicity by human intercellular adhesion molecule-1. […] Cell death was analyzed by measuring translocation of PS by flow cytometry in the negative population for CFSE as described in experimental procedures. […]

D1D2Fc = target: T1, D1D2Fc (Homo sapiens, UniProt P05362); test: Isothermal titration calorimetry (ITC); conditions: VP-ITC, D1D2Fc 12 µM titrated with peptide 150 µM, PBS, 25°C, 1:n interaction model, single type of binding sites, nonlinear regression, read-out: dissociation constant (KD)
T1 construct: The synthetic first two domains of ICAM-1 alone (D1D2) or linked with human IgG1 Fc region (D1D2Fc) were expressed in Escherichia coli; made in house; host or cells: Escherichia coli
Description: The ability of the human chimera D1D2Fc to interact with a peptide derived from its natural ligand LFA-1 in mouse was analyzed by ITC on a VP-ITC calorimeter (MicroCal) at 25°C as indicated previously ([34]). Briefly, 2.2 ml of a 12-µM solution of D1D2Fc and 0.5 ml of a 150-µM solution of peptide were prepared in PBS and degassed. Each assay consisted of a series of 28 injections of peptide solution of 10 µl each (with a 4-µl first injection) at 400 s intervals under constant stirring (459 rpm). The thermal power required to keep the cell at a constant temperature is measured, so that it provides the heat associated with each ligand injection after integrating the signal over time. The thermodynamic parameters of protein–peptide interactions (affinity, enthalpy, and entropy changes) as well as the stoichiometry were estimated by using nonlinear regression analysis. Data were analyzed using the software developed and implemented in Origin 7.0 (OriginLab).
Figure 1 Interaction of LFA-1 peptide with D1D2Fc by isothermal titration calorimetry. Purified D1D2Fc (12 µM) was titrated with a peptide derived from the binding site of mouse LFA-1 (CD11a235–259; 150 µM). The assay was performed in PBS buffer at 25°C. The nonlinear regression analysis done as described in Section “Experimental Procedures” provided a dissociation constant of 70 nM.

T1 sequence (P05362 with tags, fused parts or gaps limits assumed): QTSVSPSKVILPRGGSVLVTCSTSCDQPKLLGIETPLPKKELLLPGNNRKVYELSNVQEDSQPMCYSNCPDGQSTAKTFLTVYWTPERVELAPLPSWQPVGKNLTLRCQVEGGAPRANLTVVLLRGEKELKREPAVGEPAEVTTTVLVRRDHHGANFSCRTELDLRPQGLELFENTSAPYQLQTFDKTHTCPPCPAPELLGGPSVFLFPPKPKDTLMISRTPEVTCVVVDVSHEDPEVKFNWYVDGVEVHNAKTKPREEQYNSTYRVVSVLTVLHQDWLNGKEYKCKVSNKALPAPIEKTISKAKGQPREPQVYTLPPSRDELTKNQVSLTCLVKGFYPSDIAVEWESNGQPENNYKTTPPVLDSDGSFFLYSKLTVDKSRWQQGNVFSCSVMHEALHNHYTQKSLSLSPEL

Row | Molecule | inhibition of B cell aggregation ([1]; lovastatin 100 µM, assigned clumping index 1) | effect on Mac-1 (Mac-1; ref [42], [43]) | inhibition of Mac-1 (Mac-1; ref [43]) | effect on VLA-4 (VLA-4; ref [42], [43]) | inhibition of VLA-4 (VLA-4; ref [43]) | inhibition of Tc cell-mediated cell death of EL4 ([2]; lovastatin 100 µM) | inhibition of adhesion of mouse macrophages (mouse macrophages) | specific block of ICAM-1/LFA-1 interaction (ICAM-1/LFA-1 interaction; ref [42], [43]) | inhibition of adhesion of human monocytes (human monocytes) | inhibition of adhesion of human macrophages (human macrophages) | inhibition of B cell aggregation ([1]; peptide 250 µM, clumping index 1-10, two experiments by duplicate) | inhibition of NK cell-mediated cell death of K562 [3] | inhibition of Tc cell-mediated cell death of EL4 ([2]; peptide 250 µM, three experiments by duplicate) | ability to block ICAM-1/LFA-1 interaction (ICAM-1/LFA-1 interaction; ref [36]) | Kd (D1D2Fc)
1 | CC[C@H](C)C(=O)O[C@H]1C[C@@H](C)C=C2C=C[C@H](C)[C@H](CC[C@@H]3C[C@@H](O)CC(=O)O3)[C@H]21 [lovastatin, reference compound] | inhibit completely the aggregation | without affecting | not inhibited | without affecting | not inhibited | inhibited cell death | completely inhibit the adhesion | specifically block ICAM-1/LFA-1 interaction | block completely cell adhesion | block completely cell adhesion | – | – | – | – | –
2 | ITDGEASDKGNISAAHDITRYIIGI [CD11a235–259] | – | – | – | – | – | – | – | – | – | – | completely blocked B cell aggregation | significantly inhibit cell death | able to inhibit cytotoxicity | ability to block ICAM-1/LFA-1 interaction | 70 nM
